Assay results published in patent US20160002267A1, “BENZYL-SUBSTITUTED PYRAZOLOPYRIDINES AND USE THEREOF” (BAYER PHARMA AKTIENGESELLSCHAFT, priority 2013, published 2016).

Test system: conscious spontaneously hypertensive rats
Experiment: Radiotelemetric measurement of blood pressure on conscious spontaneously hypertensive rats
Assay type: in vivo, rat
Conditions: SHR
From the text: A commercially available telemetry system from DATA SCIENCES INTERNATIONAL DSI, USA, is employed for the blood pressure measurement on conscious rats described below.
The system consists of 3 main components: • implantable transmitters (Physiotel® telemetry transmitter) • receivers (Physiotel® receiver) which are linked via a multiplexer (DSI Data Exchange Matrix) to a • data acquisition computer.
The telemetry system makes it possible to continuously record blood pressure, heart rate and body motion of conscious animals in their usual habitat.
The investigations are carried out on adult female spontaneously hypertensive rats (SHR Okamoto) with a body weight of >200 g. SHR/NCrl from the Okamoto Kyoto School of Medicine, 1963 were a cross of male Wistar Kyoto rats with highly elevated blood pressure and female rats having a slightly elevated blood pressure and at F13 handed over to the U.S. National Institutes of Health.
After transmitter implantation, the experimental animals are housed singly in type 3 Makrolon cages. They have free access to standard feed and water.
The day/night rhythm in the experimental laboratory is changed by the room lighting at 6.00 am and at 7.00 pm.
The telemetry transmitters TA11 PA-C40 used are surgically implanted under aseptic conditions in the experimental animals at least 14 days before the first experimental use. The animals instrumented in this way can be employed repeatedly after the wound has healed and the implant has settled.
Initiation of anaesthesia gas O2+N2O […] with 5% isofluran in a through-flow vessel.
After the anaesthesia has been initiated, the animal is connected to the anaesthesia mask on a thermal plate and receives 1.8% isofluran for anaesthesia maintenance and is shaved and disinfected over a large area of its abdomen. After the abdominal cavity has been opened along the linea alba, the liquid-filled measuring catheter of the system is inserted into the descending aorta in the cranial direction above the bifurcation and fixed with tissue glue (VetBonD™, 3M). The transmitter housing is fixed intraperitoneally to the abdominal wall muscle, and layered closure of the wound is performed.
An antibiotic (Oxytetracyclin® 10%, 60 mg/kg s.c., 0.06 ml/100 g body weight, Beta-Pharma GmbH & Co, Germany) and an analgesic (Rimadyl®, 4 mg/kg s.c., Pfizer, Germany) are administered postoperatively for prophylaxis of infection.
Unless indicated otherwise, the substances to be investigated are administered orally by gavage in each case to a group of animals (n=6). The test substances are dissolved in suitable solvent mixtures, or suspended in 0.5% strength Tylose, appropriate for an administration volume of 2 ml/kg of body weight.
A solvent-treated group of animals is employed as control.
The telemetry measuring unit present is configured for 24 animals. Each experiment is recorded under an experiment number (Vyear month day).
Each of the instrumented rats living in the system is assigned a separate receiving antenna (1010 Receiver, DSI).
The implanted transmitters can be activated externally by means of an incorporated magnetic switch and are switched to transmission in the run-up to the experiment. The signals emitted can be detected online by a data acquisition system (Dataquest™ A.R.T. for WINDOWS, DSI) and processed accordingly. The data are stored in each case in a file created for this purpose and bearing the experiment number.
In the standard procedure, the following are measured for 10-second periods in each case: • systolic blood pressure (SBP) • diastolic blood pressure (DBP) • mean arterial pressure (MAP) • heart rate (HR) • activity (ACT).
The acquisition of measurements is repeated under computer control at 5-minute intervals. The source data obtained as absolute value are corrected in the diagram with the currently measured barometric pressure (Ambient Pressure Reference Monitor; APR-1) and stored as individual data. […]

CC1(C(F)(F)F)C(=O)Nc2nc(-c3nn(Cc4ccccc4F)c4ncc(F)cc34)nc(NCCC(F)(F)F)c21 (single isomer, unassigned) [Example 1-1, 2-[5-Fluoro-1-(2-fluorobenzyl)-1H-pyrazolo[3,4-b]pyridin-3-yl]-5-methyl-5-(trifluoromethyl)-4-[(3,3,3-trifluoropropyl)amino]-5,7-dihydro-6H-pyrrolo[2,3-d]pyrimidin-6-one]
Mean blood pressure (0.03 mg/kg, 0 hours after administration of substance): 140.3 mmHg
Mean blood pressure (0.03 mg/kg, 1 hours after administration of substance): 124.4 mmHg
Mean blood pressure (0.03 mg/kg, 2 hours after administration of substance): 125.2 mmHg
Mean blood pressure (0.03 mg/kg, 3 hours after administration of substance): 120.6 mmHg
Mean blood pressure (0.03 mg/kg, 4 hours after administration of substance): 124.2 mmHg
Mean blood pressure (0.03 mg/kg, 5 hours after administration of substance): 119.2 mmHg
Mean blood pressure (0.03 mg/kg, 6 hours after administration of substance): 122.4 mmHg
Mean blood pressure (0.03 mg/kg, 7 hours after administration of substance): 124.8 mmHg
Mean blood pressure (0.03 mg/kg, 8 hours after administration of substance): 129.0 mmHg
Mean blood pressure (0.03 mg/kg, 9 hours after administration of substance): 132.2 mmHg
Mean blood pressure (0.03 mg/kg, 10 hours after administration of substance): 126.0 mmHg
Mean blood pressure (0.03 mg/kg, 11 hours after administration of substance): 119.8 mmHg
Mean blood pressure (0.03 mg/kg, 12 hours after administration of substance): 134.4 mmHg
Mean blood pressure (0.03 mg/kg, 13 hours after administration of substance): 130.0 mmHg
Mean blood pressure (0.03 mg/kg, 14 hours after administration of substance): 131.4 mmHg
Mean blood pressure (0.03 mg/kg, 15 hours after administration of substance): 133.6 mmHg
Mean blood pressure (0.03 mg/kg, 16 hours after administration of substance): 120.6 mmHg
Mean blood pressure (0.03 mg/kg, 17 hours after administration of substance): 135.4 mmHg
Mean blood pressure (0.03 mg/kg, 18 hours after administration of substance): 131.6 mmHg
Mean blood pressure (0.03 mg/kg, 19 hours after administration of substance): 123.2 mmHg
Mean blood pressure (0.03 mg/kg, 20 hours after administration of substance): 123.4 mmHg
Mean blood pressure (0.03 mg/kg, 21 hours after administration of substance): 125.4 mmHg
Mean blood pressure (0.03 mg/kg, 22 hours after administration of substance): 134.2 mmHg
Mean blood pressure (0.03 mg/kg, 23 hours after administration of substance): 132.0 mmHg
Mean blood pressure (0.03 mg/kg, 24 hours after administration of substance): 126.8 mmHg
Mean blood pressure (0.3 mg/kg p.o., 0 hours after administration of substance): 144.2 mmHg
Mean blood pressure (0.3 mg/kg p.o., 1 hours after administration of substance): 128.5 mmHg
Mean blood pressure (0.3 mg/kg p.o., 2 hours after administration of substance): 116.7 mmHg
Mean blood pressure (0.3 mg/kg p.o., 3 hours after administration of substance): 112.8 mmHg
Mean blood pressure (0.3 mg/kg p.o., 4 hours after administration of substance): 114.3 mmHg
Mean blood pressure (0.3 mg/kg p.o., 5 hours after administration of substance): 109.3 mmHg
Mean blood pressure (0.3 mg/kg p.o., 6 hours after administration of substance): 110.2 mmHg
Mean blood pressure (0.3 mg/kg p.o., 7 hours after administration of substance): 113.5 mmHg
Mean blood pressure (0.3 mg/kg p.o., 8 hours after administration of substance): 114.2 mmHg
Mean blood pressure (0.3 mg/kg p.o., 9 hours after administration of substance): 114.5 mmHg
Mean blood pressure (0.3 mg/kg p.o., 10 hours after administration of substance): 109.5 mmHg
Mean blood pressure (0.3 mg/kg p.o., 11 hours after administration of substance): 118.2 mmHg
Mean blood pressure (0.3 mg/kg p.o., 12 hours after administration of substance): 110.5 mmHg
Mean blood pressure (0.3 mg/kg p.o., 13 hours after administration of substance): 115.5 mmHg
Mean blood pressure (0.3 mg/kg p.o., 14 hours after administration of substance): 117.8 mmHg
Mean blood pressure (0.3 mg/kg p.o., 15 hours after administration of substance): 114.5 mmHg
Mean blood pressure (0.3 mg/kg p.o., 16 hours after administration of substance): 118.2 mmHg
Mean blood pressure (0.3 mg/kg p.o., 17 hours after administration of substance): 122.7 mmHg
Mean blood pressure (0.3 mg/kg p.o., 18 hours after administration of substance): 127.8 mmHg
Mean blood pressure (0.3 mg/kg p.o., 19 hours after administration of substance): 121.0 mmHg
Mean blood pressure (0.3 mg/kg p.o., 20 hours after administration of substance): 110.5 mmHg
Mean blood pressure (0.3 mg/kg p.o., 21 hours after administration of substance): 113.3 mmHg
Mean blood pressure (0.3 mg/kg p.o., 22 hours after administration of substance): 116.7 mmHg
Mean blood pressure (0.3 mg/kg p.o., 23 hours after administration of substance): 115.7 mmHg
Mean blood pressure (0.3 mg/kg p.o., 24 hours after administration of substance): 123.7 mmHg
